According to US20230331715A1, “SPIRO[3.3]HEPTANE DERIVATIVES FOR THE TREATMENT AND PROPHYLAXIS OF HEPATITIS B VIRUS INFECTION” (priority 2020, published 2023):
Where two headings read alike, the source gives them in different places.

Key:
Type in all cases: cell-based
HBsAg = experiment: PHH HBV natural infection assay, HBsAg (alphalisa)
Experimental: (§1) Detailed procedures regarding primary human hepatocyte (PHH) HBV natural infection assay are described as below. One tube of frozen PHH (10 million cells) is thawed in 37° C. water bath and then transferred to 20 mL of PHH thawing medium (Sigma, InVitroGRO HT Medium, Cat. S03319) with gently mixing. The cells were then centrifuged at […] for 5 min, the supernatant was discarded and the tube was refilled with 25 mL of PHH plating medium (Sigma, InVitroGRO CP Medium, Cat. S03317). The tube was shaken very gently to re-suspend all cells, and then 50 µl of cells were transferred to each well 384-well collagen I coated plate with appropriate liquid handling equipment, e.g. Integra VIAFLO384 or Agilent Bravo. The cells were then cultured for 24 hours in a cell incubator. For HBV infection, after PHH attachment on the culture plate, the plating medium was removed and replenished with PHH culture medium containing HBV virus. The PHH culture medium was prepared with Dulbecco’s Modified Eagle Medium (DMEM)/F12 (1: 1 in volume ratio) containing 10% fetal bovine serum (Gibco, Cat. 10099141), 5 ng/mL human epidermal growth factor (Gibco, Cat.PHG0311L), 20 ng/mL dexamethasone (Sigma, Cat.D4902-100mg), 250 ng/mL human recombinant insulin (Gibco, Cat.41400045) and 100 U/mL penicillin. HBV virus at 200 genome equivalent (GE) per cell with 4% PEG8000 (Sigma, Cat.P1458) containing culture medium were added to the PHH culture medium for infection. The cells were then cultured for 24 hours in cell incubator. Then the cell culture supernatant was removed. The HBV-infected PHH were cultured with sandwich culture method with PHH culture medium containing 1% DMSO and 0.25 mg/mL matrix gel for 72 hours. The supernatant was then refreshed with PHH culture medium containing different concentrations of testing compounds for two times with 72-hour interval. At the end of treatment, the supernatant was collected for viral markers measurements, including HBsAg, HBeAg, HBV DNA and cytotoxicity. HBsAg and HBeAg were detected using alphalisa method using their specific antibodies. For HBV DNA detection, HBV DNA Quantitative Fluorescence Diagnostic Kit (Sansure Biotech Inc.) was used following the manufacture’s protocol. Cytotoxicity was determined using Cell Counting Kit-8 (CCK8, Dojindo Molecular Technologies, Inc.).
(§2) The compounds of the present invention were tested for their capacity to inhibit HBsAg and HBeAg as described herein.

HBeAg = experiment: PHH HBV natural infection assay, HBeAg (alphalisa)
Experimental: as §1, §2

[1] = Cytotoxicity in PHH natural infection assay (Cell Counting Kit-8); settings: human; HBV-infected PHH, CCK8, compound refreshed two times with 72-hour interval
Experimental: as §1

[2] = Hepatitis B virus, 72 h, read-out: HBsAg IC50, HBV-infected PHH, culture supernatant, compound refreshed two times with 72-hour interval, alphalisa
[3] = Hepatitis B virus, 72 h, read-out: HBeAg IC50, HBV-infected PHH, culture supernatant, compound refreshed two times with 72-hour interval, alphalisa
[4] = read-out: HBsAg IC50, HBV-infected PHH, culture supernatant, compound refreshed two times with 72-hour interval, alphalisa
[5] = read-out: HBeAg IC50, HBV-infected PHH, culture supernatant, compound refreshed two times with 72-hour interval, alphalisa

Compound	IC50 (HBsAg; [2]) [µM]	IC50 (HBeAg; [3]) [µM]	CC50 at 144 h [1] [µM]	IC50 (HBsAg; [4]) [µM]	IC50 (HBeAg; [5]) [µM]
N#Cc1cc(C(=O)NC2CC3(C2)CC(c2nc4cc(Cl)ccc4s2)C3)ccn1 (stereo not drawn) [Example 5, N-[6-(5-chloro-1,3-benzothiazol-2-yl)spiro[3.3]heptan-2-yl]-2-cyano-pyridine-4-carboxamide]	3.47	2.92	> 10		
[H][C@]1(NC(=O)c2ccnc(S(C)(=O)=O)c2)C[C@@]2(C1)C[C@]([H])(c1nc3cc(Cl)ccc3s1)C2 (single isomer, unassigned) [Example 54-a, (Sa)-N-[6-(5-chloro-1,3-benzothiazol-2-yl)spiro[3.3]heptan-2-yl]-2-methylsulfonyl-pyridine-4-carboxamide]			> 10	2.46	1.79
CN1CCC(C(=O)NC2CC3(C2)CC(c2nc4cc(Cl)ccc4s2)C3)CC1=O (stereo not drawn) [Example 32, N-[6-(5-chloro-1,3-benzothiazol-2-yl)spiro[3.3]heptan-2-yl]-1-methyl-2-oxo-piperidine-4-carboxamide]	6.11	4.13	> 10		
O=C(NC1CC2(C1)CC(c1nc3cc(Cl)ccc3s1)C2)c1ccnc(N2CCCCC2)c1 (stereo not drawn) [Example 51, N-[6-(5-chloro-1,3-benzothiazol-2-yl)spiro[3.3]heptan-2-yl]-2-(1-piperidyl)pyridine-4-carboxamide]	5.51	4.35	> 10		
NC(=O)Nc1cc(C(=O)NC2CC3(C2)CC(c2nc4cc(Cl)ccc4s2)C3)ccn1 (stereo not drawn) [Example 10, N-[6-(5-chloro-1,3-benzothiazol-2-yl)spiro[3.3]heptan-2-yl]-2-ureido-pyridine-4-carboxamide]	7.7	8.43	> 50		
[H][C@]1(NC(=O)c2ccnc(C(N)=O)c2)C[C@]2(C1)C[C@]([H])(c1nc3cc(Cl)ccc3s1)C2 (single isomer, unassigned) [Example 53-b, (Ra)-N4-[6-(5-chloro-1,3-benzothiazol-2-yl)spiro[3.3]heptan-2-yl]pyridine-2,4-dicarboxamide]			> 10	5.96	5.25
O=C(NC1CC2(C1)CC(c1nc3ccc(Cl)cc3s1)C2)c1ccc(C(F)(F)F)o1 (stereo not drawn) [Example 15, N-[6-(6-chloro-1,3-benzothiazol-2-yl)spiro[3.3]heptan-2-yl]-5-(trifluoromethyl)furan-2-carboxamide]	2.96	2.07	> 100		
O=C(NC1CC2(C1)CC(c1nc3cc(Cl)ccc3s1)C2)c1cccc(C(F)(F)F)c1 (stereo not drawn) [Example 1, N-[6-(5-chloro-1,3-benzothiazol-2-yl)spiro[3.3]heptan-2-yl]-3-(trifluoromethyl)benzamide]	6.55	4.53	> 10		
O=C(NC1CC2(C1)CC(c1nc3cc(Cl)ccc3s1)C2)c1ccc(S(=O)(=O)N2CC(F)(F)C2)o1 (stereo not drawn) [Example 21, N-[6-(5-chloro-1,3-benzothiazol-2-yl)spiro[3.3]heptan-2-yl]-5-(3,3-difluoroazetidin-1-yl)sulfonyl-furan-2-carboxamide]	1.49	1.14	> 10		
CC(C)N(C)c1cc(C(=O)NC2CC3(C2)CC(c2nc4cc(Cl)ccc4s2)C3)ccn1 (stereo not drawn) [Example 49, N-[6-(5-chloro-1,3-benzothiazol-2-yl)spiro[3.3]heptan-2-yl]-2-[isopropyl(methyl)amino]pyridine-4-carboxamide]	3.14	2.38	> 10		
CS(=N)(=O)c1cc(C(=O)NC2CC3(C2)CC(c2nc4cc(Cl)ccc4s2)C3)ccn1 (stereo not drawn) [Example 40, N-[6-(5-chloro-1,3-benzothiazol-2-yl)spiro[3.3]heptan-2-yl]-2-(methylsulfonimidoyl)pyridine-4-carboxamide]	2.53	2.41	> 10		
COc1cc(C(=O)NC2CC3(C2)CC(c2nc4cc(Cl)ccc4s2)C3)ccn1 (stereo not drawn) [Example 42, N-[6-(5-chloro-1,3-benzothiazol-2-yl)spiro[3.3]heptan-2-yl]-2-methoxy-pyridine-4-carboxamide]	3.12	2.67	> 10		
[H][C@]1(NC(=O)c2cc(C(N)=O)ncn2)C[C@]2(C1)C[C@]([H])(c1nc3cc(Cl)ccc3s1)C2 (single isomer, unassigned) [Example 56-b, (Ra)-N6-[6-(5-chloro-1,3-benzothiazol-2-yl)spiro[3.3]heptan-2-yl]pyrimidine-4,6-dicarboxamide]			> 10	3.3	2.27
CC(C)(C)S(=O)(=O)c1cc(C(=O)NC2CC3(C2)CC(c2nc4cc(Cl)ccc4s2)C3)ccn1 (stereo not drawn) [Example 38, 2-tert-butylsulfonyl-N-[6-(5-chloro-1,3-benzothiazol-2-yl)spiro[3.3]heptan-2-yl]pyridine-4-carboxamide]	1.95	1.49	30.8		
